Source: PubChem BioAssay AID434951 (Broad Institute, 2010)
pEC50: −log10 of the molar value. Calls of active or inactive are those of the source.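 How the source made its calls: active means a fitted half-maximal concentration EC50 for the rise in nuclear signal no higher than ten times the top dose tested; inconclusive means flat fit with activity between 30% and 70%, or unusable fit; inactive means EC50 beyond ten times the top dose.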

Biological target: Hypoxia-inducible factor 1-alpha (Homo sapiens) (UniProt Q16665)
Assay: activators of HIF1alpha nuclear accumulation, confirmation, imaging, fluorescence, U2OS GFP-HIF1alpha (AID 434951)
Settings: U2OS GFP-HIF1alpha nuclear intensity, high-content imaging

Sequence of Hypoxia-inducible factor 1-alpha (Homo sapiens) (Q16665 whole entry, looked up): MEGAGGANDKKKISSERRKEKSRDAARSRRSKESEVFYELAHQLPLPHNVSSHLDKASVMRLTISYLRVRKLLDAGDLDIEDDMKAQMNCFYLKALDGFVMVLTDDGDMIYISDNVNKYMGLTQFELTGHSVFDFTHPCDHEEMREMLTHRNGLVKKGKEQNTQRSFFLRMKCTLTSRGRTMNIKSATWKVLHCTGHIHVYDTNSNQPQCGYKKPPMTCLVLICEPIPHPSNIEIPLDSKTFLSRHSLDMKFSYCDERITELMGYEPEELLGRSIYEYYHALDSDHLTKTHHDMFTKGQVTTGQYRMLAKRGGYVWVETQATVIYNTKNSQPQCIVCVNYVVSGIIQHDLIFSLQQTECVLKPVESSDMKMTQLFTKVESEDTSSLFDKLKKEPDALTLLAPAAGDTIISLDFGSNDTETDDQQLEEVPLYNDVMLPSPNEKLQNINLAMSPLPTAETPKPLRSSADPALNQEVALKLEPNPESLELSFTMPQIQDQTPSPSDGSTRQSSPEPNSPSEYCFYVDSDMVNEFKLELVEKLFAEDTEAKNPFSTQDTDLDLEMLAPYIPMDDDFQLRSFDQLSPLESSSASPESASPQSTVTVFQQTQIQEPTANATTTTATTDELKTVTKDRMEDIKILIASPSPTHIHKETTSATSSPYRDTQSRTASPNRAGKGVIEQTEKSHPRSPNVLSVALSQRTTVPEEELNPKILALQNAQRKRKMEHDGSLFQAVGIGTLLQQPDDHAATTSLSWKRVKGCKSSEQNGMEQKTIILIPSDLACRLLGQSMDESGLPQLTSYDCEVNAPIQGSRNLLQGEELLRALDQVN

Structure (SMILES)	pEC50	EC50
Cc1ccc(C)c(S(=O)(=O)N2CCN(Cc3ccc(O)c4ncccc34)CC2)c1	5.16	–
Fc1ccc(CSc2ccc(-c3ccco3)nn2)cc1	–	> 35 µM (inactive)
Oc1ccc(/C=N/NC(=S)NC2CC3CCC2C3)cc1 (configuration not stated)	–	> 35 µM (inactive)
COc1ccc2cc3c(N)nn(C(=O)Cc4c[nH]c5ccccc45)c3nc2c1	–	> 35 µM (inactive)
CN(C1CCCC1)C1CCN(C(=S)Nc2cc(F)cc(F)c2)CC1	–	> 35 µM (inactive)
Cc1c(Cl)cccc1NC(=S)N/N=C/c1ccccc1Cl	4.83	–
Cc1cc(C)c2nc(NNC(=O)c3ccc(S(=O)(=O)N4CCCC(C)C4)cc3)sc2c1 (configuration not stated)	5.14	–
CC1CC(C)CN(S(=O)(=O)c2ccc3c(c2)oc(=O)n3CC(=O)NCCCOC(C)C)C1 (configuration not stated)	–	> 35 µM (inactive)
O=C(N/N=C\c1cc(Cl)ccc1O)c1ccc(S(=O)(=O)N2CCCCC2)cc1	5.24	–
CCN(CC)CCCNC(=O)C1c2ccccc2C(=O)N(C)C1c1ccc(OC)cc1 (configuration not stated)	–	> 35 µM (inactive)
Cc1ccc(C(=O)NC2CC3CCCC(C2)N3Cc2ccccc2)cc1 (configuration not stated)	–	> 35 µM (inactive)
O=C(Nc1nc(-c2ccccn2)cs1)c1ccc(S(=O)(=O)N2CCCCC2)cc1	5.15	–
CCN(CC)c1ccc(/C=N/Nc2nc(C)cc(=O)[nH]2)c(O)c1	4.46	–
O=C(NCC(=O)N(Cc1ccco1)C(C(=O)NC1CCCCC1)c1cccnc1)c1cccs1 (configuration not stated)	–	> 35 µM (inactive)
COc1ccc(C(=O)Nc2ccc(C(=O)NCCc3ccc(OC)c(OC)c3)cc2)cc1	–	> 35 µM (inactive)
CC(=O)c1cccc(NS(=O)(=O)c2ccc(-c3cc(C)no3)s2)c1	–	> 35 µM (inactive)
C/C(=N\NC(=O)c1cc(-c2cccnc2)nc2ccccc12)c1ccccc1O	4.66	–
Cc1ccc(CSc2nnc(CCCCCNC(=O)OC(C)(C)C)o2)cc1	–	> 35 µM (inactive)
COCCNC(=O)C(=O)NCC1OCCN1S(=O)(=O)c1cc(F)ccc1F (configuration not stated)	–	> 35 µM (inactive)
CCNc1nc(Cl)nc(NNC(=O)C(C)Oc2ccccc2)n1 (configuration not stated)	–	> 35 µM (inactive)
CCOc1nc(NCCN2CCOCC2)nc(Nc2ccc(C)cc2)n1	–	> 35 µM (inactive)

Structure (SMILES)	pEC50	EC50
Cc1ccc(NC2CCCN(C(=O)C3CCCCC3)C2)cc1C (configuration not stated)	–	> 35 µM (inactive)
O=C(Nc1ccccc1O)c1ccc(NS(=O)(=O)c2cccc3cccnc23)cc1	5.17	–
O=C(NC1CCCC1)c1cc(-c2ccccc2)on1	4.79	–
ON=C1c2cc(OCCN3CCCCC3)ccc2-c2ccc(OCCN3CCCCC3)cc21	5.05	–
Cc1sc2ncnc(Sc3nnnn3-c3ccc(Cl)cc3)c2c1C	–	> 35 µM (inactive)
Cc1nc([N+](=O)[O-])c(Br)n1Cc1ccc(Cl)c(Cl)c1	–	> 35 µM (inactive)
CCCCCCN1C=CC=C/C1=C/C=C(C#N)C#N	–	> 35 µM (inactive)
O=C(NC1=NCCS1)c1cccc(NC(=O)c2ccco2)c1	–	> 35 µM (inactive)
CCOc1ccccc1NC(=O)CSc1ncnc2c1oc1ccccc12	–	> 35 µM (inactive)
O=C1N/C(=C/c2cccs2)C(=O)N1Cc1ccc(Br)cc1	–	> 35 µM (inactive)
Cc1cc(C)n(-c2nc3ccccc3c(=O)n2OCC#N)n1	4.94	–
Cn1nnnc1N=N/C(=N/Nc1ccccc1)c1ccccc1	5.12	–
COc1cnc(-c2ccccn2)nc1N(C)C	5.23	–
Oc1cccc(C(Nc2nccs2)c2ccc3cccnc3c2O)c1 (configuration not stated)	5.16	–
COc1cc(C(=O)N/N=C(\c2ccccc2)c2ccccn2)cc(OC)c1OC	4.95	–
CCOC(=O)C1CCCN(C(=O)c2ccc3nc(-c4ccccc4)c(-c4ccccc4)nc3c2)C1 (configuration not stated)	–	> 35 µM (inactive)
COc1ccc(N2CCN(c3ccc(N4C(=O)CC(C)C4=O)cc3[N+](=O)[O-])CC2)cc1 (configuration not stated)	–	> 35 µM (inactive)
S=C(Nc1ccc2cn[nH]c2c1)Nc1ccccc1Cl	–	> 35 µM (inactive)
CCOC(=O)CN1C(=N)N(c2nc(NC(C)C)nc(NC(C)C)n2)CC1=O	–	> 35 µM (inactive)
CCOC(=O)N1CCN(c2ccc(Cl)c(Cl)c2)CC1	–	> 35 µM (inactive)
COc1ccc(CCNC(=O)c2cc(-c3ccco3)on2)cc1OC	4.97	–
